Measured values reported in patent publication US20200046869A1, “USE OF ZINC TREATED PRECIPITATED CALCIUM CARBONATE IN HYGIENIC PRODUCTS” (Omya International AG, priority 2017, published 2020).

Assays:
[1] = test system: Aerobe bacteria (TSA plates); test: Plate count of aerobe total viable count in zinc containing powders; format: cell-based; conditions: powder in disruption buffer, 48 hours at 30° C., detection limit 100 cfu/g
Description: (§1) The microbial contamination (bacterial and fungi growth) of three different zinc containing powder samples was determined by the plate count method (spread count) according to the following procedure: 1 g of the respective powder and 9 ml sterile disruption buffer (DB) were weighed into a sterile 50 ml test tube (Greiner) under aseptic conditions using an autoclaved disposable spatula (VWR) in order to obtain suspensions of the zinc containing powder samples. To detach the microorganisms from the zinc containing powders samples, the suspensions were shaken on a vortex for 60 sec. at 2500 rpm before being put on a shaker for 30 minutes at motor setting 1400 (at room temperature, i.e. 21° C.). The sample to be analyzed was appropriately diluted and a defined volume no greater than 0.1 ml was spread over the surface of an agar plate using a sterile glass/plastic spreader. The agar plates were then incubated upside down (condensed water) for a defined period of time at a defined temperature. The sample to be analyzed was diluted 1:10 in PBS and 100 μl of the dilution was spread onto the TSA plate which was incubated for 48 hours at 30° C. The plates were evaluated by counting the grown colonies, thereby taking into account that only plates containing between 30-300 colonies have a high statistical significance. […]

Fungi = test: Plate count of fungal growth in zinc containing powders; format: cell-based; conditions: powder in disruption buffer, Sabouraud-Glucose agar, 7 days at 25° C.; detection limit 10 cfu/g
Description: as §1, with “dilution were” for “dilution was”, “the” for “the TSA”, “for 7 days” for “for 48 hours”, “at 25°” for “at 30°”

Row | Compound | TVC Aerobe [1] | TVC Fungi (Fungi)
1 | O=C([O-])[O-].[Zn+2] [ZnCaCO3, ZnCO3] | <100 cfu/g | <10 cfu/g
2 | [O]=[Zn] [ZnO] | <100 cfu/g | <10 cfu/g
